Measured values taken from US6184217A (Cephalon, Inc., priority 1997, dated 2001).

How the values were obtained:
IL-1β = assay: LPS-induced IL-1β in the serum of mice; format: in vivo, C57BL mice; conditions: LPS dose 1.0 ip; 30 mg/kg ip 2 h before LPS; vehicle 300 ± 87; N = 8
Method: (§1) Sixty female C57BL mice (4-6 weeks old) were divided into six groups, each with 10 animals. Three groups (1,3,5) received vehicle only (PBS containing 0.1% TEA (tetraethyl ammonium hydrochloride)), 200 μl/mouse via intraperitoneal (ip) administration. The other three groups (2,4,6) received Compound A (30 mg/kg in 200 μl, ip) of vehicle (PBS containing 10% of the ethyl ester of 12-hydroxystearic acid; solutol). Two hours later, the animals received by ip administration, 0.1 mg/kg of LPS (groups 1 & 2), 0.5 mg/kg of LPS (groups 3 & 4), and 1.0 mg/kg of LPS (groups 5 % 6). Two hours after LPS administration, all of the animals were sacrificed, and plasma samples were obtained and assayed for their […] and IL-1β content. Assays were carried out as described in Example 8.
(§2) The numbers in are the group numbers as described above. N indicates the number of animals from which plasma measurements where made. ND=not done.

[1] = test system: acrylamide-induced peripheral neuropathy; assay: Acrylamide-induced peripheral neuropathy, landing foot spread; format: in vivo, Sprague-Dawley rats; conditions: 0.3 mg/kg/day s.c.; acrylamide 50 mg/kg IP three times/week for three weeks (FIG. 5)
Description: Acrylamide produces a "dying back" central-peripheral distal neuropathy in humans and animals. The lesion is a mixed sensory/motor neuropathy characterized by weakness, tremor and ataxia in humans. In animals, acrylamide produces changes in behavior (sensory, motor and proprioceptive), histopathology, electrophysiology and weight loss. In the periphery, large diameter, long axon, Ab fibers are preferentially affected by acrylamide. In rats, acrylamide administration produces an axonopathy as measured by increased landing foot spread (LFS), a measure of proprioception.
It differs from other chemically-induced models (such as chemotherapeutic models) in that the duration is relatively short (3 weeks) and the animals are in relatively good health.
Male Sprague-Dawley rats weighing 250 grams at the start of the experiment were used. Acrylamide (50 mg/kg, IP) was administered three times/week for three weeks. The animals were dropped from a height of 30 cm and the distance between the hindfeet was recorded (Edwards, P. M. and Parker, V. H. (1977) "A simple, sensitive, and objective method for early assessment of acrylamide neuropathy in rats." Toxicol. Appl Pharmacol, 40:589-591). Compound A (0.1, 0.3 or 1.0 mg/kg, s.c. in 5% solutol) was administered once daily for the duration of the experiment.

[2] = test system: striatal tyrosine hydroxylase (dopaminergic neurons); assay: Striatal tyrosine hydroxylase activity in high-dose MPTP-treated mice; format: in vivo; conditions: MPTP 40 mg/kg s.c., 7 days
Method: In a separate experiment, the activities of Compound A were assessed in a high dose MPTP-mouse model. A single 40 mg/kg injection of MPTP produced a 95% depletion in striatal tyrosine hydroxylase enzyme activity 7 days post-injection. Administration of Compound A at daily doses of between 0.03 and 3.0 mg/kg reduced the magnitude of the lesion, in a dose dependent manner.
Mice were treated with MPTP (40 mg/kg; s.c.) 4-6 hrs after the first Compound A injection. Compound A was then injected every day until the end of the experiment which was 7 days in duration. Striata were assessed for tyrosine hydroxylase enzyme activity. Asterisk indicates statistically significant difference (p<0.05) from MPTP-Vehicle treated animals.

TNF-α = assay: LPS-induced TNF-α in the serum of mice; format: in vivo, C57BL mice; conditions: 30 mg/kg ip 2 h before LPS
Method: as §1, §2

[3] = test system: cholinergic neurons, striatal neurons, and sensory neurons; conditions: cited from earlier work
[4] = test system: IL-1β production (THP-1 cells); assay: Inhibition of LPS-induced IL-1β production in THP-1 cells; format: cell-based; conditions: Homo sapiens, LPS 2 ug/ml
Method: Stock solutions consisting of 4 mM Compound A, in 100% DMSO, were stored at 4° C. Cell culture medium RPMI 1640 (Media Tech, Herndon, Va.) and fetal bovine serum (Hyclone, Logan, Utah) comprised the test medium. Lipopolysaccharide (LPS) (Sigma, St. Louis, Mo.) from E. coli serotype 0.111:B4, extracted with trichloroacetic acid, was used. Stock solutions of LPS were prepared and stored at 4° C. in phosphate-buffered saline (PBS). ELISA kits for assaying tumor necrosis factor alpha (TNF-α) and IL-1β were purchased from Boehringer-Mannheim, (Indianapolis, Ind.) and were used according to the manufacturer's instructions. THP-1 cells, a human monocyte-derived cell line, was obtained from the American Type Culture Collection (ATCC TIB 202). Cells were grown in RPMI 1640 containing 10% fetal bovine serum (medium) in a humidified atmosphere of 5% CO2 :95% air at 37° C. Experiments were performed in 24 well culture plates (Nunc) with 5×10^5 THP-1 cells in 1 ml of medium. Cells were incubated with LPS at 2 ug/ml to induce TNF-α. After a 3-hr incubation period, the cells and medium were centrifuged at 1,000×g for 5 min, and the resulting supernatant fluid was either assayed immediately for TNF-α or stored at -70° C. and assayed later. Media samples were measured for content of TNF-α and IL-1β by Elisa assays. […]

## CCSCc1ccc2c(c1)c1c3c(c4c5cc(CSCC)ccc5n5c4c1n2C1CC(O)(C(=O)OC)C5(C)O1)CNC3=O (stereo not shown) [Compound A]
IL-1β
  IL-1β: 59 ± 19 pg/mL
[1]
  increase in landing foot spread (LFS) produced by acrylamide: reduced the magnitude of the increase in LFS
[2]; 0.03 mg/kg daily
  % Unlesioned Control: 8 ± 2.5%
  Striatal TH Activity (± SEM): 1.8 ± 0.6
[2]; 0.3 mg/kg daily
  % Unlesioned Control: 12 ± 2.5%
  Striatal TH Activity (± SEM): 2.7 ± 0.6
[2]; 3.0 mg/kg daily
  % Unlesioned Control: 23 ± 8.0%
  Striatal TH Activity (± SEM): 5.3 ± 1.8
TNF-α; LPS dose 0.1 ip, vehicle 6129 ± 676, N = 10
  TNF-α: 2714 ± 449 pg/mL
TNF-α; LPS dose 0.5 ip, vehicle 7141 ± 1113, N = 7
  TNF-α: 3766 ± 375 pg/mL
TNF-α; LPS dose 1.0 ip, vehicle 3745 ± 610, N = 9
  TNF-α: 2399 ± 1399 pg/mL
[3]
  function of cholinergic neurons, striatal neurons, and sensory neurons: enhance the function of cholinergic neurons, striatal neurons, and sensory neurons
[4]
  IC50: 261 nM
